In US7772271B2 (priority 2004, dated 2010) one finds melting point data, which are given here for twelve compounds.

On to `CCOc1ccc2c(I)c(-c3ccc(NC(=O)OC(C)C)cc3)n(CC3CC3)c2c1` [compound 2634, [4-(1-cyclopropylmethyl-6-ethoxy-3-iodo-1H-indol-2-yl)-phenyl]-carbamic acid isopropyl ester], for which the melting point fell in the range of 135 to 140 °C. The compound `CCOc1ccc2c(C#CC3CC3)c(-c3ccc(NC(=O)OC(C)C)cc3)n(CC3CC3)c2c1` [compound 2635, [4-(3-cyclopropylethynyl-1-cyclopropylmethyl-6-ethoxy-1H-indol-2-yl)-phenyl]-carbamic acid isopropyl ester] yielded a melting point of 175 to 180 °C.

`CCOc1ccc2c(F)c(-c3ccc(NC(=O)OC(C)C)cc3)n(CC3CC3)c2c1` [compound 2640, [4-(1-Cyclopropylmethyl-6-ethoxy-3-fluoro-1H-indol-2-yl)-phenyl]-carbamic acid isopropyl ester] showed a melting point of 178 to 184 °C.

In the case of `CCOc1ccc2c(Br)c(-c3ccc(NC(=O)OC(C)C)cc3)n(CC3CC3)c2c1` [compound 2691, [4-(3-bromo-1-cyclopropylmethyl-6-ethoxy-1H-indol-2-yl)-phenyl]-carbamic acid isopropyl ester], the melting point was 128 to 132 °C. `CC(OC(=O)Nc1ccc(-c2c(C#N)c3ccc(OCCS(C)(=O)=O)cc3n2C2CCC2)cc1)C1CC1` (stereo not drawn) [compound 2695, {4-[3-Cyano-1-cyclobutyl-6-(2-methanesulfonyl-ethoxy)-1H-indol-2-yl]-phenyl}-carbamic acid 1-cyclopropyl-ethyl ester] had a melting point of 135 to 140 °C.

For `CCSc1ccc2c(C#N)c(-c3ccc(NC(=O)O[C@H](C)C4CC4)cc3)n(C3CCC3)c2c1` [compound 2720, (R)-[4-(3-cyano-1-cyclobutyl-6-ethylsulfanyl-1H-indol-2-yl)-phenyl]-carbamic acid 1-cyclopropyl-ethyl ester], the melting point was 120 to 122 °C.

Turning to `CC(C)OC(=O)Nc1ccc(-c2c(C#N)c3ccc(N4CCOCC4)cc3n2C2CCC2)cc1` [compound 2800, [4-(3-cyano-1-cyclobutyl-6-morpholin-4-yl-1H-indol-2-yl)-phenyl]-carbamic acid isopropyl ester], the melting point fell in the range of 206 to 208 °C. Next, `COc1ccc2c(Cl)c(-c3ccc(NC(=O)OC(C)C)cc3)n(CC3CC3)c2c1` [compound 2804, [4-(3-chloro-1-cyclopropylmethyl-6-methoxy-1H-indol-2-yl)-phenyl]-carbamic acid isopropyl ester]: 171 to 177 °C; `CC(OC(=O)Nc1ccc(-c2cc3ccc(Oc4ncccn4)cc3n2C2CCC2)cc1)C(F)(F)F` (stereo not drawn) [compound 2888, {4-[1-cyclobutyl-6-(pyrimidin-2-yloxy)-1H-indole-2-yl]-phenyl}-carbamic acid 2,2,2-trifluoro-1-methyl-ethyl ester]: 99 to 101 °C.

For `C[C@@H](OC(=O)Nc1ccc(-c2c(C#N)c3ccc(OCS(C)(=O)=O)cc3n2C2CCC2)cc1)C1CC1` [compound 2988, (R)-[4-(3-cyano-1-cyclobutyl-6-methanesulfonylmethoxy-1H-indol-2-yl)-phenyl]-carbamic acid 1-cyclopropyl-ethyl ester], the melting point was 218 to 223 °C.

With `Cc1csc(Nc2ccc(-c3c(C#N)c4ccc(Oc5ncccn5)cc4n3C3CCC3)cc2)n1` [compound 3180, 1-cyclobutyl-2-[4-(4-methyl-thiazol-2-ylamino)-phenyl]-6-(pyrimidin-2-yloxy)-1H-indole-3-carbonitrile], the melting point is 223 to 225 °C.

Turning to `CC(C)OC(=O)Nc1ccc(-c2c(C#N)c3ccc(OC4CCS(=O)(=O)CC4)cc3n2C2CCC2)cc1` [compound 3182, {4-[3-cyano-1-cyclobutyl-6-(1,1-dioxo-hexahydro-1λ^6-thiopyran-4-yloxy)-1H-indol-2-yl]-phenyl}-carbamic acid isopropyl ester], the melting point lay in the range of 245 to 249 °C.
